The values that follow come from patent US6528524B2, “Pharmaceutical compositions containing cinchonine dichlorhydrate” (Debiopharm SA, priority 1997, dated 2003).

Structures can show the parent of a compound that is named as a salt. Where two headings read alike, the source gives them in different places.

Data set [1] in a line: In vivo bioavailability / pharmacokinetic study in Beagle dogs. More on the design: C20 min: unit not given here. The note with it: for C20 min / T1/2 a / half-life: dose 50 mg/kg; for C20 min: blood concentration 20 minutes after administration; for T1/2 a / half-life: absorption; for half-life: Beagle, dog, blood, read-out: T1/2 a. The method, then:
These tests were performed in four “Beagle” dogs, two of which were male and two female.
Each dog received, on day 1, a dose of 50 mg per kg of cinchonine dihydrochloride and, on day 8, an equivalent dose of cinchonine monohydrochloride. Blood samples were taken at regular intervals after each administration.

Data set [2] in a line: Stability of cinchonine dihydrochloride in aqueous solution (NMR spectra day 0 vs day 30). It is filed as physicochemical. The note with it: aqueous solution kept at ambient temperature and in the light for 30 days. The method, then:
The ^1H and ^13C spectra were built up using samples of 100 mg and 20 mg respectively in 0.5 ml of deuterated methanol.
The NMR spectra were obtained using a Bruker DRX 500 spectrometer fitted with a so-called “reversible” sensor.
The aqueous solution was kept at ambient temperature and in the light for 30 days. After 30 days, the NMR spectra were recorded in the same way as above.

For data set [3] the following is noted: cited from earlier work.
[4] abbreviates: Beagle dog F2 (female), dihydrochloride.
The mark [5] stands for this setting: Beagle dog M1 (male), dihydrochloride.
[6] abbreviates: Beagle dog F1 (female), monohydrochloride.
Setting [7] is: Beagle dog F2 (female), monohydrochloride.
Setting [8] is: Beagle dog M1 (male), monohydrochloride.
Setting [9] is: Beagle dog M2 (male), monohydrochloride.

Regarding `C=C[C@H]1C[N@@]2CC[C@H]1C[C@@H]2[C@@H](O)c1ccnc2ccccc12` [CDH, cinchonine dihydrochloride], the C20 min in data set [1] (Beagle dog F1 (female), dihydrochloride) stood at 2.05; in data set [1] (setting [4]), 3.68; in data set [1] (setting [5]), 0.23; in data set [1] (Beagle dog M2 (male), dihydrochloride) it was 2.1. The T1/2 a in data set [1] (setting [4]) is 20.4 s; in data set [1] (setting [5]), 15.6 s. Moreover, in data set [1] (Beagle dogs, 50 mg/kg), the “absorption time, compared with cinchonine monohydrochloride” value is “greater than that of cinchonine monohydrochloride”. For the same compound, the “blood concentration 20 minutes after administration, compared with cinchonine monohydrochloride” value in data set [1] (Beagle dogs, 50 mg/kg) is listed as “greater than that of cinchonine monohydrochloride”. For the same compound, the half-life came out at 6 s in data set [1] (female, 50 mg/kg, Beagle dog F1 (female)) and 23.4 s in data set [1] (male, 50 mg/kg, Beagle dog M2 (male)). The “Stability (NMR spectra on day 0 and day 30)” value is given as “remarkable stability” in data set [2] (listed as Cinchonine dihydrochloride) and “unchanged” in data set [2] (listed as cinchonine dihydrochloride).

Regarding `C=C[C@H]1C[N@@]2CC[C@H]1C[C@@H]2[C@@H](O)c1ccnc2ccccc12` [CMH, cinchonine monohydrochloride, reference compound], the T1/2 a amounted to 3 s in data set [1] (setting [6]), 6.6 s in data set [1] (setting [7]), 3.6 s in data set [1] (setting [8]) and 14.4 s in data set [1] (setting [9]). In addition, the C20 min is 1.04 in data set [1] (setting [6]), 1.66 in data set [1] (setting [7]), 0 in data set [1] (setting [8]) and 0.25 in data set [1] (setting [9]).

In the case of `C=C[C@H]1C[N@@]2CC[C@H]1C[C@@H]2[C@@H](O)c1ccnc2ccccc12` [cinchonine], in data set [3], the solubility in water entry is given as “very sparingly soluble in water”.
